Data as given in US11666561B2, “Compounds for use in regulating follicle maturation” (AARHUS UNIVERSITET, priority 2017, dated 2023).
“Also recorded” adds a separate entry of the source.

B1: BI 836845: humanised IgG1 monoclonal antibody that binds to and neutralises IGF-1 and IGF-2 (antibody, chains of the INN, looked up, V domains shown)
VH: QVELVESGGGLVQPGGSLRLSCAASGFTFTSYWMSWVRQAPGKGLELVSSITSYGSFTYYADSVKGRFTISRDNSKNTLYLQMNSLRAEDTAVYYCARNMYTHFDSWGQGTLVTVSS
VL: DIVLTQPPSVSGAPGQRVTISCSGSSSNIGSNSVSWYQQLPGTAPKLLIYDNSKRPSGVPDRFSGSKSGTSASLAITGLQSEDEADYYCQSRDTYGYYWVFGGGTKLTVL
B2: MM-141: tetravalent bispecific antibody targeting IGF-1 receptor and ERBB3 (antibody, chains of the INN, looked up, V domains shown)
VH: EVQLLQSGGGLVQPGGSLRLSCAASGFMFSRYPMHWVRQAPGKGLEWVGSISGSGGATPYADSVKGRFTISRDNSKNTLYLQMNSLRAEDTAVYYCAKDFYQILTGNAFDYWGQGTTVTVSS
VL: DIQMTQSPSSLSASLGDRVTITCRASQGISSYLAWYQQKPGKAPKLLIYAKSTLQSGVPSRFSGSGSGTDFTLTISSLQPEDSATYYCQQYWTFPLTFGGGTKVEIK
VH2: QVQLVQSGGGLVQPGGSLRLSCAASGFTFDDYAMHWVRQAPGKGLEWVAGISWDSGSTGYADSVKGRFTISRDNAKNSLYLQMNSLRAEDTALYYCARDLGAYQWVEGFDYWGQGTLVTVSS
VL2: SYELTQDPAVSVALGQTVRITCQGDSLRSYYASWYQQKPGQAPVLVIYGKNNRPSGIPDRFSGSTSGNSASLTITGAQAEDEADYYCNSRDSPGNQWVFGGGTKVTVL

Test system: primordial-to-primary follicle transition
Assay: In vitro organ culture of mouse ovaries with compound, H&E histology and counting of primordial, primary and secondary follicles
Protocol: Ovaries obtained from mice were washed twice with culture medium. Antagonists or agonists to be tested were dissolved in suitable solvents and added to the medium. As a control medium comprising solvent without the antagonist or agonist was used. One of the ovaries was cultured in a control medium and another was cultured with the antagonist or agonist. The tested antagonists or agonists and their concentrations are outlined in table 2.
Ovaries were incubated with antagonist at 37° C. and 5% CO2 for 24 and 96 hours, respectively (see table 3).
Cultures ovaries were fixed, embedded in paraffin and sliced microscopy. The sectioned ovaries were stained with hematoxylin and eosin (H&E) to visualize the morphology of the ovary by microscopy.
The number of primordial, primary and secondary follicles was determined, and it was determined whether the antagonist or agonist was capable of regulating folliculogenesis.
C57BL/6j×CBA F1 hybrid mice (Janvier Labs, France) were housed and bred in the animal facilities at Department of Biomedicine, Aarhus University. Animals were housed in a 12:12 h controlled light-dark environment and were provided with food and water ad libitum. 7-day-old female pups were used for the study.
Pups were sacrificed and ovaries were excised. Using a stereomicroscope MZ75 (Leica Microsystems, Germany), excess tissue was removed. During the dissection, ovaries were kept at 37° C. in culture medium: aMEM (Thermo Fisher) supplemented with 10% FBS (Thermo Fisher), 100 mIU/mL of FSH (Sigma-Aldrich), 100 IU/mL penicillin (Thermo Fisher), 100 μg/mL streptomycin (Thermo Fisher) and 1% Insulin-Transferrin-Selenium (Thermo Fisher). Isolated ovaries were transferred into well inserts (PET membrane ThinCert, 0.4 μm-pore size; Greiner bio-one) in 24-well plates (Tissue culture treated, cell culture plates; Costar). 200-300 μL of culture medium was added to the well below the insert and up to two ovaries were placed on the membrane of each insert. The culture medium was supplemented with different concentrations of the tested compounds; bpV(HOpic) (Sigma-Aldrich), Temsirolimus (Sigma-Aldrich), Ketotifen (Sigma-Aldrich), 3PO (Sigma-Aldrich), Dorsomorphin (Sigma-Aldrich), AICAR (Sigma-Aldrich), NCG (Sigma-Aldrich), and Dyphylline (Cayman Chemical). Up to six wells in the 24-well plate were used for inserts. Sterile dH2O was added to the rest of the wells to ensure humidity and reduce evaporation. The ovaries were cultured at 37° C., 5% CO2 for four days. 150 μL of medium was replaced every other day with fresh culture medium.
Ovaries kept in organ culture for four days were fixed for 24 hours in 4% paraformaldehyde solution at 4° C. After fixation, ovaries were dehydrated in ethanol series using 70%, 96% and 99.9% ethanol. Xylene was used as clearing agent before the ovaries were infiltrated in paraffin wax. 5 μm-sections of samples in paraffin were cut using a microtome (Cut 6062, SLEE medical, Germany). Paraffin sections were mounted on glass slides, paraffin was melted at 60° C., and the samples were stained with hematoxylin and eosin (using standard protocols).
The samples were deparaffinized by incubating in xylene for 2×15 min. and subsequently rehydrated in series of ethanol; 3×2 min. in 99.9% ethanol, 2 min. in 96% ethanol, and 2 min. in 70% ethanol. The samples were then rinsed in dH2O, stained in hematoxylin for 40 sec., rinsed in dH2O for 5 min., and stained in eosin for 46 sec. The samples were dehydrated in ethanol: 2×2 min. in 96% ethanol, 2×2 min in 99.9% ethanol, and finally cleared up in xylene for at least 30 min before mounting the samples using Eukitt mounting medium (Sigma-Aldrich) and cover glass.
The number of follicles at each developmental stage was counted using an inverted research microscope (DM14000B, Leica Microsystems, Germany). The follicles of every 3rd to 4th section of each ovary were counted and the distribution of follicles in the different stages in percentage was determined.

Molecule | Effect (Table 1, marked (ongoing)) | Effect (Table 2, marked (ongoing)) | further results
c1ccc2c(CCNc3ccc(Nc4ccncc4)cc3)c[nH]c2c1 [Serdemetan, 1-N-[2-(1H-indol-3-yl)ethyl]-4-N-pyridin-4-ylbenzene-1,4-diamine] | promotes | promotes | –
NC(=O)c1ncn([C@@H]2O[C@H](CO)[C@@H](O)[C@H]2O)c1N [AICAR, 5-aminoimidazole-4-carboxamide-1β-D-ribofuranoside] | – | – | follicles (stage not given; activation of primordial follicles inhibited) (0.5 mM AICAR (n=1), data not shown): 83.83±3.06%; primary follicles (1 mM AICAR, four days): 10.82±4.98%; primordial follicles (1 mM AICAR, four days): 86.02±5.84%; secondary follicles (1 mM AICAR, four days): 3.0±3.09%; health of growing follicles in treated ovaries (AICAR 0.1-1 mM, four days): growing follicles within the ovary tended to appear unhealthy; also recorded: too harsh for the growing follicles; Effect (Table 1, effect with a figure cited): promotes; Effect (Table 2, effect with a figure cited): promotes; effect on primordial-to-primary follicle transition / primordial follicle activation (in vitro cultured mouse ovaries, concentration not given): suppress the primordial-to-primary follicle transition
CCN1[C@@H](C(=O)NC23CCC(C(=O)O)(CC2)CC3)[C@H](c2cccc(Cl)c2F)[C@]2(C(=O)Nc3cc(Cl)ccc32)C12CCCCC2 [APG-115] | promotes | promotes | –
B1 | promotes | promotes | –
B2 | promotes | promotes | –
